# Patent publication EP0186977A2, “Renin-inhibitory dipeptides, their preparation and use” (SANKYO COMPANY LIMITED, priority 1984, dated 1986)
# Target: T1, human renin (Homo sapiens, UniProt P00797)
# T1 sequence (P00797 67-406): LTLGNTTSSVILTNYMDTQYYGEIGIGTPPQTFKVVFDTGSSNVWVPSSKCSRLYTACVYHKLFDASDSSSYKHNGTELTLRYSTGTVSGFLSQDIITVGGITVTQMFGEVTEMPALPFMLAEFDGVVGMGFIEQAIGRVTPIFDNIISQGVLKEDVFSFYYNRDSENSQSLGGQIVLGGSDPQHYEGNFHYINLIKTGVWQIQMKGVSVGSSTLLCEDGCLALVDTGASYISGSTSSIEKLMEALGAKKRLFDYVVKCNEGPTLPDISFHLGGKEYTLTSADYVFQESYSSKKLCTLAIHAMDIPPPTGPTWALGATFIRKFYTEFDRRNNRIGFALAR
# Experiment: Inhibition of renin activity (human renin with sheep angiotensinogen, assay of remaining angiotensin I)
# Assay type: biochemical
# Details: 1 x 10 ^6M of the test compound, phosphate buffer pH 7.3, 10 minutes at 37°C, mean of 3 or 4 experiments
# Method: The ability of various compounds of the invention to inhibit the activity of renin was determined according to the following method, which follows essentially the procedure of Kokubu et al. [Hypertension, 5, 191-197 (1983)].
# Specifically, each test compound was dissolved in 60% v/v aqueous ethanol. Human renin activity in the presence and absence of each compound was measured using sheep angiotensinogen. The total volume of 1 ml of assay mixture contained 0.1 mole/litre phosphate buffer (pH 7.3), human renin (equivalent to 0.5 ng angiotensin I per ml per minute), sheep angiotensinogen (equivalent to 200 ng angiotensin 1), 1 x 10 ^6M of the test compound, 6% v/v ethanol and angiotensinase inhibitors (10 mmole/litre sodium ethylenediaminetetraacetate and 3.4 mmole/litre 8-hydroxyquinoline). The mixture was allowed to react for 10 minutes at 37°C, and then the reaction was stopped by placing the reaction tube in a boiling water bath for 5 minutes. The mixture was then centrifuged and the supernatant (0.05-0.1 ml) was used to assay remaining angiotensin I.
# An identical experiment was carried out, as a control, except that the test compound was omitted. From the values obtained were calculated the % inhibition of renin activity achieved by each test compound. The results are shown in the following Table, in which the compounds of the invention are identified by the numbers assigned to them in the foregoing list. The values given are the mean of 3 or 4 experiments.
# The isomers of these test compounds employed in these experiments are those isomers prepared as described in the subsequent Examples.
row,inhibition at 1 µM,Structure (SMILES)
1,95%,"CC[C@H](C)[C@@H](CO)NC(=O)C[C@H](O)[C@H](CC(C)C)NC(=O)C(Cc1cscn1)NC(=O)C(Cc1cccc2ccccc12)Cc1cccc2ccccc12 (mixture of isomers) [Compound No. 223, N-[4(S)-{N-[Bis(1-naphthylmethyl)acetyl]-3-(4-thiazolyl)-DL-alanylamino}-3(S)-hydroxy-6-methyl-heptanoyl]-L-isoleucinol]"
2,93%,"CC[C@H](C)[C@@H](CO)NC(=O)C[C@H](O)[C@H](CC(C)C)NC(=O)[C@H](CCC(N)=O)NC(=O)C(Cc1cccc2ccccc12)Cc1cccc2ccccc12 [compound 208, N-[4(S)-{N-[Bis(1-naphthylmethyl)acetyl]-L-glutaminylamino}-3(S)-hydroxy-6-methylheptanoyl]-L-isoleucinol]"
3,92%,CC[C@H](C)[C@@H](CO)NC(=O)C[C@H](O)[C@H](CC(C)C)NC(=O)[C@H](CCC(=O)O)NC(=O)C(Cc1cccc2ccccc12)Cc1cccc2ccccc12 [compound 212]
4,99%,"CCCCCCCC(NC(=O)C(Cc1cccc2ccccc12)Cc1cccc2ccccc12)C(=O)N[C@@H](CC(C)C)[C@@H](O)CC(=O)N[C@H](CO)[C@@H](C)CC (stereo partly drawn) [Compound No. 286, N-[4(S)-{2(RS)-(Bis(1-naphthylmethyl)acetyl]amino-nonanovl}amino-3(S)-hydroxv-6-methylheptanoyl]-L-isoleucinol]"
5,93.5%,CC(C)C[C@H](NC(=O)C(CCCCc1ccccc1)Cc1cccc2ccccc12)C(=O)N[C@@H](CC(C)C)[C@@H](O)CC(=O)NCCN1CCOCC1 (stereo partly drawn) [compound 15]
6,98.2%,"CC[C@H](C)CNC(=O)C[C@H](O)[C@H](CC(C)C)NC(=O)[C@H](Cc1c[nH]cn1)NC(=O)C(Cc1cccc2ccccc12)Cc1cccc2ccccc12 [Compound No. 74, 4(S)-{N-[Bis(1-naphthylmethyl)acetyl]-L-histidyl-amino}-3(S)-hydroxy-6-methyl-N-[2(S)-(-)-methylbutyl]-heptanamide]"
7,99%,CCCCCC(NC(=O)C(Cc1cccc2ccccc12)Cc1cccc2ccccc12)C(=O)N[C@@H](CC(C)C)[C@@H](O)CC(=O)NCC(C)CC (stereo partly drawn) [compound 274]
8,99%,"CCOCCNC(=O)C[C@H](O)[C@H](CC(C)C)NC(=O)[C@H](CC(C)C)NC(=O)C(Cc1cccc2ccccc12)Cc1cccc2ccccc12 [compound 45, 4(S)-{N-[Bis(1-naphthylmethyl)acetyl]-L-leucylamino}-3(S)-hydroxv-6-methvl-N-(2-ethoxyethvl)heptanamide]"
9,99%,"CCCC[C@H](NC(=O)C(Cc1cccc2ccccc12)Cc1cccc2ccccc12)C(=O)N[C@@H](CC(C)C)[C@@H](O)CC(=O)N[C@H](CO)[C@@H](C)CC [Compound No. 88, N-[4(S)-{N-[Bis(1-naphthylmethyl)acetyl]-L-norleucylamino}-3(S)-hydroxy-6-methylheptanoyl]-L-isoleucinol]"
10,99%,"CC[C@H](C)[C@@H](CO)NC(=O)C[C@H](O)[C@H](CC(C)C)NC(=O)[C@H](Cc1c[nH]cn1)NC(=O)C(Cc1cccc2ccccc12)Cc1cccc2ccccc12 [Compound No. 72, N-[4(S)-{N-[Bis(1-naphthylmethyl)acetyl]-L-histidylamino}-3(S)-hydroxy-6-methylheptanoyl]-L-isoleucinol]"
11,99%,"C=CCC(NC(=O)C(Cc1cccc2ccccc12)Cc1cccc2ccccc12)C(=O)N[C@@H](CC(C)C)[C@@H](O)CC(=O)N[C@H](CO)[C@@H](C)CC (mixture of isomers) [compound 291, N-[4(S)-{N-[Bis(1-naphthylmethyl)acetyl]-DL-allylglycylamino}-3(S)-hydroxy-6-methylheptanoyl]-L-isoleucinol]"
12,93.5%,"CC[C@H](C)[C@@H](CO)NC(=O)C[C@H](O)[C@H](CC(C)C)NC(=O)[C@H](CCSC)NC(=O)C(Cc1cccc2ccccc12)Cc1cccc2ccccc12 [Compound No. 196, N-[4(S)-{N-[Bis(1-naphthylmethyl)acetyl]-L-methionyl-amino}-3(S)-hydroxy-6-methylheptanoyl]-L-isoleucinol]"
